Experiments:
TGFBR2 = molecular target: T1, TGFBR2 (Homo sapiens, UniProt P37173); test: TGFBR2 RBC assay (enzyme inhibition assay, Reaction Biology Corp.); format: biochemical
T1 construct: purchased Reaction Biology Corp
Description: Compounds of the disclosure were also assayed by Reaction Biology Corp. using the TGFBR2 RBC assay (enzyme inhibition assay). […] NT refers to not tested.

[1] = tested on: TGFβ/SMAD Signaling Pathway SBE reporter cell line; test: TGFβ reporter assay, in vitro small molecule screening (luciferase); format: cell-based; conditions: TGFβ stimulation, luminescence
Outline: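 SBE luciferase reporter cells (~0.5×10^6 cells/mL) preincubated with compound 5-6 h at 37 °C in 0.5% FBS MEM, then stimulated with TGFβ (12 ng/mL stock) for 18 h. Luminescence read after luciferase substrate; EC50 from curve fits.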

T1 sequence (P37173 23-567): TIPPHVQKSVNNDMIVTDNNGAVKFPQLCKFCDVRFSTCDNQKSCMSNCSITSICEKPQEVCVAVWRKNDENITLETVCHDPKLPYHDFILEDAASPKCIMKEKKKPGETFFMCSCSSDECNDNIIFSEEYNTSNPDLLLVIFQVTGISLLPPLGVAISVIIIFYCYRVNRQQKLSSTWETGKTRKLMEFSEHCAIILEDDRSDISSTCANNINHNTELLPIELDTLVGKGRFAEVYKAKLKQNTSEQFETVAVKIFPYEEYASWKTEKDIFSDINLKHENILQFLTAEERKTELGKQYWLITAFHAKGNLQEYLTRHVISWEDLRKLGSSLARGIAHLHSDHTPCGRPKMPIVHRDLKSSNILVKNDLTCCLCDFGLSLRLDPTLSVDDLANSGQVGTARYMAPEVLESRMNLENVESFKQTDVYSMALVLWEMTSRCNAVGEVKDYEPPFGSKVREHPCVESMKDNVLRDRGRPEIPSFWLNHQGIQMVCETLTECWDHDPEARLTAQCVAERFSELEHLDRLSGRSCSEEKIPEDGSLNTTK

| Compound | IC50 (TGFBR2) | EC50 [1] |
| --- | --- | --- |
| CC(COc1ccc(-c2cnc(N)c(C(=O)Nc3cnccc3N3CCOCC3)n2)cc1)NC(=O)OC(C)(C)C (stereo not drawn) [Compound 204] | < 50 nM | > 1000 nM |
| CC(CNC(=O)OC(C)(C)C)Oc1ccc(-c2cnc(N)c(C(=O)Nc3cnccc3N3CCOCC3)n2)cc1 (stereo not drawn) [Compound 206] | < 50 nM | 100 to 1000 nM |
| CC(C)(C)OC(=O)N[C@@H](Cc1ccc(-c2cnc(N)c(C(=O)Nc3cnccc3N3CCOCC3)n2)cc1)C(=O)O [Compound 207] | < 50 nM | 100 to 1000 nM |
| CC(C)(C)OC(=O)N[C@H](CO)Cc1ccc(-c2cnc(N)c(C(=O)Nc3cnccc3N3CCOCC3)n2)cc1 [Compound 209] | < 50 nM | 100 to 1000 nM |
| Nc1ncc(-c2ccc(C[C@H](N)CO)cc2)nc1C(=O)Nc1cnccc1N1CCOCC1 [Compound 210] | < 50 nM | 100 to 1000 nM |
| Nc1ncc(-c2ccc3c(c2)CC(N)C3)nc1C(=O)Nc1cnccc1N1CCOCC1 (stereo not drawn) [Compound 213] | < 50 nM | 50 to 100 nM |
| CC(C)(C)OC(=O)N1CC(Oc2ccc(-c3cnc(N)c(C(=O)Nc4cnccc4N4CCOCC4)n3)cc2)C1 [Compound 218] | < 50 nM | 50 to 100 nM |
| Nc1ncc(-c2ccc(O[C@H]3C[C@H](N)C3)cc2)nc1C(=O)Nc1cnccc1N1CCOCC1 [Compound 222] | < 50 nM | 100 to 1000 nM |
| CC(C)(C)OC(=O)N[C@H]1C[C@@H](Oc2ccc(-c3cnc(N)c(C(=O)Nc4cnccc4N4CCOCC4)n3)cc2)C1 [Compound 223] | < 50 nM | 100 to 1000 nM |
| CCOC(=O)[C@@H]1CN(Cc2ccccc2)C[C@H]1c1ccc(-c2cnc(N)c(C(=O)Nc3cnccc3N3CCOCC3)n2)cc1 [Compound 226] | < 50 nM | 100 to 1000 nM |
| CCOC(=O)[C@@H]1CNC[C@H]1c1ccc(-c2cnc(N)c(C(=O)Nc3cnccc3N3CCOCC3)n2)cc1 [Compound 227] | < 50 nM | 50 to 100 nM |
| CC(C)(C)OC(=O)N1CCCc2cc(-c3cnc(N)c(C(=O)Nc4cnccc4N4CCOCC4)n3)ccc2C1 [Compound 228] | 50 to 100 nM | 100 to 1000 nM |
| CC(C)(C)OC(=O)NCC1CCc2cc(-c3cnc(N)c(C(=O)Nc4cnccc4N4CCOCC4)n3)ccc2O1 (stereo not drawn) [Compound 233] | < 50 nM | 100 to 1000 nM |
| CC1NCCc2cc(-c3cnc(N)c(C(=O)Nc4cnccc4N4CCOCC4)n3)ccc21 (stereo not drawn) [Compound 234] | < 50 nM | 100 to 1000 nM |
| Nc1ncc(-c2ccc(CCNC(=O)OCc3ccccc3)cc2)nc1C(=O)Nc1cnc(F)cc1N1CCOCC1 [Compound 236] | < 50 nM | > 1000 nM |
| NCC1CCc2cc(-c3cnc(N)c(C(=O)Nc4cnccc4N4CCOCC4)n3)ccc2O1 (stereo not drawn) [Compound 237] | < 50 nM | 50 to 100 nM |
| CC(C)(C)OC(=O)NC1CNc2ccc(-c3cnc(N)c(C(=O)Nc4cnccc4N4CCOCC4)n3)cc2C1 (stereo not drawn) [Compound 238] | 50 to 100 nM | 100 to 1000 nM |
| Nc1ncc(-c2ccc3c(c2)CC(N)CN3)nc1C(=O)Nc1cnccc1N1CCOCC1 (stereo not drawn) [Compound 239] | 50 to 100 nM | 100 to 1000 nM |
| COC(=O)c1cc(-c2cnc(N)c(C(=O)Nc3cnccc3N3CCOCC3)n2)ccc1OCCCNC(=O)OC(C)(C)C [Compound 241] | 100 to 1000 nM | > 1000 nM |
| Nc1ncc(-c2ccc3c(c2)CCC(O)C3)nc1C(=O)Nc1cnccc1N1CCOCC1 (stereo not drawn) [Compound 249] | < 50 nM | 100 to 1000 nM |
| Nc1ncc(-c2ccc3ccccc3c2)nc1C(=O)Nc1cnccc1N1CCOCC1 [Compound 252] | < 50 nM | 100 to 1000 nM |
| CNc1ncc(-c2ccc(OC(C)CN)cc2)nc1C(=O)Nc1cnccc1N1CCOCC1 (stereo not drawn) [Compound 254] | > 1000 nM | > 1000 nM |
| Nc1ncc(-c2ccc(N3CCOCC3)cc2)nc1C(=O)Nc1cnccc1N1CCOCC1 [Compound 258] | < 50 nM | < 50 nM |
| CN(C)c1ccc(-c2cnc(N)c(C(=O)Nc3cnccc3N3CCOCC3)n2)cc1 [Compound 259] | < 50 nM | < 50 nM |
| CNc1ccc(-c2cnc(N)c(C(=O)Nc3cnccc3N3CCOCC3)n2)cc1 [Compound 260] | < 50 nM | < 50 nM |
| Nc1ncc(-c2ccc(OCC[C@H](NC(=O)OCc3ccccc3)C(=O)O)cc2)nc1C(=O)Nc1cnccc1N1CCOCC1 [Compound 265] | < 50 nM | > 1000 nM |

Now from value to molecule:

| IC50 (TGFBR2) | EC50 [1] | Compound |
| --- | --- | --- |
| < 50 nM | > 1000 nM | COC(=O)[C@@H](N)Cc1ccc(-c2cnc(N)c(C(=O)Nc3cnccc3N3CCOCC3)n2)cc1 [Compound 203] |
| < 50 nM | 100 to 1000 nM | CC(N)COc1ccc(-c2cnc(N)c(C(=O)Nc3cnccc3N3CCOCC3)n2)cc1 (stereo not drawn) [Compound 205] |
| < 50 nM | > 1000 nM | Nc1ncc(-c2ccc(C[C@H](N)C(=O)O)cc2)nc1C(=O)Nc1cnccc1N1CCOCC1 [Compound 208] |
| < 50 nM | 100 to 1000 nM | CC(C)(C)OC(=O)NC1Cc2ccc(-c3cnc(N)c(C(=O)Nc4cnccc4N4CCOCC4)n3)cc2C1 (stereo not drawn) [Compound 212] |
| < 50 nM | 100 to 1000 nM | CC1(C)CCNc2ccc(-c3cnc(N)c(C(=O)Nc4cnccc4N4CCOCC4)n3)cc21 [Compound 214] |
| < 50 nM | 100 to 1000 nM | CC(C)(C)OC(=O)NC1CCc2cc(-c3cnc(N)c(C(=O)Nc4cnccc4N4CCOCC4)n3)ccc21 (stereo not drawn) [Compound 215] |
| < 50 nM | 50 to 100 nM | CC1CCNc2ccc(-c3cnc(N)c(C(=O)Nc4cnccc4N4CCOCC4)n3)cc21 (stereo not drawn) [Compound 216] |
| < 50 nM | 100 to 1000 nM | Nc1ncc(-c2ccc3c(c2)OCCN3)nc1C(=O)Nc1cnccc1N1CCOCC1 [Compound 217] |
| < 50 nM | 50 to 100 nM | Nc1ncc(-c2ccc(OC3CNC3)cc2)nc1C(=O)Nc1cnccc1N1CCOCC1 [Compound 219] |
| < 50 nM | 100 to 1000 nM | Nc1ncc(-c2ccc3c(c2)CCC3N)nc1C(=O)Nc1cnccc1N1CCOCC1 (stereo not drawn) [Compound 220] |
| < 50 nM | < 50 nM | CC(C)(C)OC(=O)N[C@H]1C[C@H](Oc2ccc(-c3cnc(N)c(C(=O)Nc4cnccc4N4CCOCC4)n3)cc2)C1 [Compound 221] |
| < 50 nM | > 1000 nM | Nc1ncc(-c2ccc(O[C@H]3C[C@@H](N)C3)cc2)nc1C(=O)Nc1cnccc1N1CCOCC1 [Compound 224] |
| 100 to 1000 nM | 100 to 1000 nM | CC1c2ccc(-c3cnc(N)c(C(=O)Nc4cnccc4N4CCOCC4)n3)cc2CCN1C(=O)OC(C)(C)C (stereo not drawn) [Compound 225] |
| 50 to 100 nM | 100 to 1000 nM | Nc1ncc(-c2ccc3c(c2)CCCNC3)nc1C(=O)Nc1cnccc1N1CCOCC1 [Compound 229] |
| < 50 nM | 50 to 100 nM | CC(C)(C)OC(=O)N1CCc2cc(-c3cnc(N)c(C(=O)Nc4cnccc4N4CCOCC4)n3)ccc2C1CN (stereo not drawn) [Compound 230] |
| < 50 nM | > 1000 nM | Nc1ncc(-c2ccc3c(c2)CCNC3CN2C(=O)c3ccccc3C2=O)nc1C(=O)Nc1cnccc1N1CCOCC1 (stereo not drawn) [Compound 232] |
| < 50 nM | 100 to 1000 nM | NCC1NCCc2cc(-c3cnc(N)c(C(=O)Nc4cnccc4N4CCOCC4)n3)ccc21 (stereo not drawn) [Compound 235] |

| IC50 (TGFBR2) | EC50 [1] | Compound |
| --- | --- | --- |
| 50 to 100 nM | > 1000 nM | COC(=O)c1cc(-c2cnc(N)c(C(=O)Nc3cnccc3N3CCOCC3)n2)ccc1OCCCN1C(=O)c2ccccc2C1=O [Compound 240] |
| 50 to 100 nM | > 1000 nM | COC(=O)c1cc(-c2cnc(NC(=O)OC(C)(C)C)c(C(=O)Nc3cnccc3N3CCOCC3)n2)ccc1OCCCNC(=O)OC(C)(C)C [Compound 242] |
| 100 to 1000 nM | 100 to 1000 nM | CC(C)(C)OC(=O)NCC1CCc2cc(-c3cnc(N)c(C(=O)Nc4cnccc4N4CCOCC4)n3)ccc2N1 (stereo not drawn) [Compound 243] |
| < 50 nM | 100 to 1000 nM | NCC1CCc2cc(-c3cnc(N)c(C(=O)Nc4cnccc4N4CCOCC4)n3)ccc2N1 (stereo not drawn) [Compound 244] |
| < 50 nM | 100 to 1000 nM | Nc1ncc(-c2ccc3c(c2)CCCC3O)nc1C(=O)Nc1cnccc1N1CCOCC1 (stereo not drawn) [Compound 245] |
| < 50 nM | 100 to 1000 nM | Nc1ncc(-c2ccc3c(c2)CC(O)CC3)nc1C(=O)Nc1cnccc1N1CCOCC1 (stereo not drawn) [Compound 246] |
| < 50 nM | 50 to 100 nM | Nc1ncc(-c2ccc3c(c2)CCC3O)nc1C(=O)Nc1cnccc1N1CCOCC1 (stereo not drawn) [Compound 247] |
| < 50 nM | 100 to 1000 nM | Nc1ncc(-c2ccc3c(c2)CC(O)C3)nc1C(=O)Nc1cnccc1N1CCOCC1 (stereo not drawn) [Compound 248] |
| < 50 nM | 100 to 1000 nM | Nc1ncc(-c2ccc3c(c2)C(O)CCC3)nc1C(=O)Nc1cnccc1N1CCOCC1 (stereo not drawn) [Compound 251] |
| 100 to 1000 nM | > 1000 nM | Nc1ncc(-c2cccc3ccccc23)nc1C(=O)Nc1cnccc1N1CCOCC1 [Compound 253] |
| 50 to 100 nM | 100 to 1000 nM | CC(CN)Oc1ccc(-c2cnc(N)c(C(=O)Nc3cnccc3N3CCCOCC3)n2)cc1 (stereo not drawn) [Compound 256] |
| < 50 nM | > 1000 nM | CC(CN)Oc1ccc(-c2cnc(N)c(C(=O)Nc3cnccc3N3CCCCOCC3)n2)cc1 (stereo not drawn) [Compound 257] |
| > 1000 nM | > 1000 nM | CC(CN)Oc1ccc(-c2cnc(N)c(C(=O)Nc3cnccc3N3CCCOCCC3)n2)cc1 (stereo not drawn) [Compound 261] |
| < 50 nM | 100 to 1000 nM | Nc1ncc(-c2ccc(N3CCCC3)cc2)nc1C(=O)Nc1cnccc1N1CCOCC1 [Compound 262] |
| < 50 nM | 100 to 1000 nM | COC(=O)[C@@H](N)CCOc1ccc(-c2cnc(N)c(C(=O)Nc3cnccc3N3CCOCC3)n2)cc1 [Compound 263] |
| < 50 nM | > 1000 nM | COC(=O)[C@H](CCOc1ccc(-c2cnc(N)c(C(=O)Nc3cnccc3N3CCOCC3)n2)cc1)NC(=O)OCc1ccccc1 [Compound 264] |
| < 50 nM | 100 to 1000 nM | CC(C)(C)OC(=O)NCCNc1ccc(-c2cnc(N)c(C(=O)Nc3cnccc3N3CCOCC3)n2)cc1 [Compound 266] |

— US20220362396A1, “AMINO-PYRAZINECARBOXAMIDE COMPOUNDS, CONJUGATES, AND USES THEREOF” (Silverback Therapeutics, Inc., priority 2018, published 2022)
